The record followed here is paper PMC13430218 (Clinical Cancer Research, 2026).

A short description of this data set: Plasma pharmacokinetics of rogocekib, LC-MS/MS, noncompartmental. The data set is classed as in vivo, human. The method, then: For other patients in the expansion cohort, peripheral blood samples were collected before and after the dose at 2 and 6 hours on day 1 of cycle 1, and before dose of day 1 in cycles 2 and 4.
Descriptive statistics such as medians, standard deviations, and ranges were calculated. The Kaplan–Meier method was utilized for OS and PFS analysis. PK/PD parameters were assessed using a noncompartmental approach. Exploratory biomarkers were assessed through descriptive statistics.

On to `COc1ncnn2ccc(-c3cnc4nc(C)n(Cc5nnc([C@@H](C)F)o5)c4c3)c12` [rogocekib, Rogocekib], for which, for the setting “Cohort A 10 mg twice weekly, n = 1, cycle 1 day 1, oral”, the “Tmax, median (min, max)” value is 2 (2, 2) hours. The “AUC0–24 hours, geometric mean (%CV)” value (Cohort A 140 mg twice weekly, n = 6, cycle 1 day 1, oral) is 5,823.618 (22.2) hours·ng/mL.
